# Test results taken from ChEMBL document CHEMBL5634091, “Cantharidin analogue alleviates dextran sulfate sodium-induced colitis in mice by inhibiting the activation of NF-κB signaling” (Eur J Med Chem, 2023).
# pIC50: −log10 of the molar value. Activity calls are given as the source filed them. The rule behind the calls is not given here.
# Legend:
# RAW264.7 = assay: Antiinflammatory activity in mouse RAW264.7 cells assessed as inhibition in LPS/IFNgamma-induced NO production preincubated for 2 hrs followed by LPS/IFNgamma stimulation and measured after 24 hrs by Griess reagent based assay; type: functional, cell-based
# [1] = Cytotoxicity against LPS/IFNgamma induced mouse RAW264.7 cells assessed as inhibition of cell growth preincubated for 24 hrs followed by LPS/IFNgamma stimulation and measured after 24 hrs by SRB assay; type: toxicity, cell-based; settings: RAW264.7 cells induced with LPS/IFNgamma, time 48 hrs
# [2] = Selectivity index, ratio of CC50 for cytotoxicity against LPS/IFNgamma induced mouse RAW264.7 cells to IC50 for antiinflammatory activity in mouse RAW264.7 cells assessed as inhibition in LPS/IFNgamma-induced NO production; type: toxicity, cell-based; settings: RAW264.7 cells induced with LPS/IFNgamma, read-out: Ratio IC50
# [3] = Inhibition of TNF-alpha induced NF-kappaB activation in HEK293T cells preincubated for 4 hrs and followed by TNF-alpha stimulation and measured after 4 hrs by dual-luciferase reporter assay; type: cell-based; settings: Homo sapiens, HEK-293T
# [4] = Selectivity index, ratio of CC50 for cytotoxicity against TNF-alpha induced HEK293T cells to IC50 for inhibition of TNF-alpha induced NF-kappaB activation in HEK293T cells; type: toxicity, cell-based; settings: human, HEK293T cells induced with TNF-alpha; read-out: Ratio IC50
# [5] = Toxicity in Kunming mouse assessed as increase in body weight at 400 mg/kg, po measured for 15 days (reference value: 12.38%); type: organism-based; settings: in vivo, 360 h, time 15 day
# HCT-116 [6] = assay: Effect on IKK protein expression in TNF-alpha stimulated human HCT-116 cells at 12.5 to 50 uM preincubated for 4 hrs and followed TNF-alpha stimulation and measured after 10 mins by Western blot analysis; type: functional, cell-based; settings: dose 12.5-50 µM, time 250.0 min
# DLD-1 [7] = assay: Effect on NF-kappaB p65 protein expression in TNF-alpha stimulated human DLD-1 cells at 12.5 to 50 uM preincubated for 4 hrs and followed TNF-alpha stimulation and measured after 10 mins by Western blot analysis; type: functional, cell-based; settings: dose 12.5-50 µM, time 250.0 min
# DLD-1 [8] = assay: Effect on p38 protein expression in TNF-alpha stimulated human DLD-1 cells at 6.25 to 50 uM preincubated for 4 hrs and followed TNF-alpha stimulation and measured after 10 mins by Western blot analysis; type: functional, cell-based; settings: dose 6.25-50 µM, time 250.0 min
# DLD-1 [9] = assay: Upregulation of ERK protein expression in TNF-alpha stimulated human DLD-1 cells at 50 uM preincubated for 4 hrs and followed TNF-alpha stimulation and measured after 10 mins by Western blot analysis; type: functional, cell-based; settings: time 250.0 min
# HCT-116 [10] = assay: Upregulation of JNK protein expression in TNF-alpha stimulated human HCT-116 cells at 50 uM preincubated for 4 hrs and followed TNF-alpha stimulation and measured after 10 mins by Western blot analysis; type: functional, cell-based; settings: time 250.0 min
# DLD-1 [11] = assay: Inhibition of TNF-alpha induced MAPK signaling pathway activation in human DLD-1 cells assessed as decrease in phospho-ERK protein expression at 12.5 uM preincubated for 4 hrs and followed TNF-alpha stimulation and measured after 10 mins by Western blot analysis; type: cell-based; settings: time 250.0 min
# [12] = Cytotoxicity against human DLD-1 cells assessed as inhibition in cell proliferation; type: toxicity, cell-based
# Mus musculus [13] = assay: Anti-inflammatory activity in C57BL/6 mouse model of DSS-induced acute ulcerative colitis assessed as reduction in submucosal edema at 100 to 300 mg/kg, po administered once a day for 7 days by H and E staining based analysis; type: functional, organism-based; settings: dose 100-300 mg/kg, time 7.0 day
# Mus musculus [14] = assay: Anti-inflammatory activity in po dosed C57BL/6 mouse model of DSS-induced acute ulcerative colitis assessed as reduction in IL-6 mRNA expression in colon administered once a day for 7 days by RT-PCR analysis; type: functional, organism-based; settings: dose 100-300 mg/kg, time 7.0 day
# Mus musculus [15] = assay: Anti-inflammatory activity in po dosed C57BL/6 mouse model of DSS-induced acute ulcerative colitis assessed as reduction in CCL2 mRNA expression in colon administered once a day for 7 days by RT-PCR analysis; type: functional, organism-based; settings: dose 100-300 mg/kg, time 7.0 day
# Mus musculus [16] = assay: Anti-inflammatory activity in po dosed C57BL/6 mouse model of DSS-induced acute ulcerative colitis assessed as reduction in IFN-gamma mRNA expression in colon administered once a day for 7 days by RT-PCR analysis; type: functional, organism-based; settings: dose 100-300 mg/kg, time 7.0 day
# Mus musculus [17] = assay: Anti-inflammatory activity in po dosed C57BL/6 mouse model of DSS-induced acute ulcerative colitis assessed as reduction in TNFalpha mRNA expression in colon administered once a day for 7 days by RT-PCR analysis; type: functional, organism-based; settings: dose 100-300 mg/kg, time 7.0 day
# Mus musculus [18] = assay: Anti-inflammatory activity in po dosed C57BL/6 mouse model of DSS-induced acute ulcerative colitis assessed as reduction in IL-1beta mRNA expression in colon administered once a day for 7 days by RT-PCR analysis; type: functional, organism-based; settings: dose 100-300 mg/kg, time 7.0 day
# Mus musculus [19] = assay: Anti-inflammatory activity in C57BL/6 mouse model of DSS-induced acute ulcerative colitis assessed as increase in IL-10 mRNA expression in colon at 100 to 300 mg/kg, po administered once a day for 7 days by RT-PCR analysis; type: functional, organism-based; settings: dose 100-300 mg/kg, time 7.0 day
# [20] = Toxicity in C57BL/6 mouse model of DSS-induced acute ulcerative colitis assessed as effect on heart tissue at 100 to 300 mg/kg, po administered once a day for 7 days by H and E staining based analysis; type: organism-based; settings: in vivo, 168 h, dose 100-300 mg/kg, time 7 day
# [21] = Toxicity in C57BL/6 mouse model of DSS-induced acute ulcerative colitis assessed as effect on liver tissue at 100 to 300 mg/kg, po administered once a day for 7 days by H and E staining based analysis; type: organism-based; settings: in vivo, 168 h, dose 100-300 mg/kg, time 7 day
# [22] = Toxicity in C57BL/6 mouse model of DSS-induced acute ulcerative colitis assessed as effect on spleen tissue at 100 to 300 mg/kg, po administered once a day for 7 days by H and E staining based analysis; type: organism-based; settings: in vivo, 168 h, dose 100-300 mg/kg, time 7 day
# [23] = Toxicity in C57BL/6 mouse model of DSS-induced acute ulcerative colitis assessed as effect on lung tissue at 100 to 300 mg/kg, po administered once a day for 7 days by H and E staining based analysis; type: organism-based; settings: in vivo, 168 h, dose 100-300 mg/kg, time 7 day
# [24] = Toxicity in C57BL/6 mouse model of DSS-induced acute ulcerative colitis assessed as effect on stomach at 100 to 300 mg/kg, po administered once a day for 7 days by H and E staining based analysis; type: organism-based; settings: in vivo, 168 h, dose 100-300 mg/kg, time 7 day
# HCT-116 [25] = assay: Cytotoxicity against human HCT-116 cells assessed as induction of stress response at 50 uM; type: toxicity, cell-based; settings: hct-116, 50 µM
# Mus musculus [26] = assay: Anti-inflammatory activity in C57BL/6 mouse model of DSS-induced acute ulcerative colitis assessed as reduction in histopathological changes of granulocyte infiltration at 100 to 300 mg/kg, po administered once a day for 7 days by H and E staining based analysis; type: functional, organism-based; settings: dose 100-300 mg/kg, time 7.0 day
# [27] = Toxicity in Kunming mouse assessed as number of mouse survived at 400 mg/kg, po measured for 15 days; type: organism-based; settings: in vivo, 360 h, time 15 day
# [28] = Toxicity in Kunming mouse assessed as number of mouse survived at 667 mg/kg, po measured for 15 days; type: organism-based; settings: in vivo, 360 h, time 15 day
# [29] = Toxicity in Kunming mouse assessed as number of mouse survived at 1111 mg/kg, po measured for 15 days; type: organism-based; settings: in vivo, 360 h, time 15 day
# [30] = Toxicity in Kunming mouse assessed as number of mouse survived at 1852 mg/kg, po measured for 15 days; type: organism-based; settings: in vivo, 360 h, time 15 day
smiles,measurement,setting,value
COC(=O)C1=C(C(=O)OC)C2OC1CC2C#Cc1ccc(C)cc1 (stereo unspecified),pIC50,RAW264.7,5.58
same,CC50 at 24 h,[1],12.2 µM
same,selectivity ratio,[2],4.57
same,pIC50,[3],4.79
same,selectivity ratio,[4],5.85
same,Activity,[5],13.21%
same,Activity,HCT-116 [6],inactive
same,Activity,DLD-1 [7],inactive
same,Activity,DLD-1 [8],inactive
same,Activity,DLD-1 [9],Active
same,Activity,HCT-116 [10],Active
same,inhibition,DLD-1 [11],Active
same,pIC50,[12],5.08
same,Activity,Mus musculus [13],Active
same,Activity,Mus musculus [14],Dose-Dependent Effect
same,Activity,Mus musculus [15],Dose-Dependent Effect
same,Activity,Mus musculus [16],Dose-Dependent Effect
same,Activity,Mus musculus [17],Dose-Dependent Effect
same,Activity,Mus musculus [18],Dose-Dependent Effect
same,Activity,Mus musculus [19],Active
same,Activity,[20],Non-Toxic
same,Activity,[21],Non-Toxic
same,Activity,[22],Non-Toxic
same,Activity,[23],Non-Toxic
same,Activity,[24],Non-Toxic
same,Activity,HCT-116 [25],Toxic
same,Activity,Mus musculus [26],Active
same,Activity,[27],0
same,Activity,[28],0
same,Activity,[29],0
same,Activity,[30],0
